Assay results published in ChEMBL document CHEMBL1149703 (Bioorg Med Chem Lett, 2007).
pIC50: −log10 of the molar value. Each block holds one compound with its values, some of them ahead of it.

Columns and labels:
[1] = molecular target: cAMP-dependent protein kinase catalytic subunit alpha (Homo sapiens, UniProt P17612); test: Inhibition of cAPK Calpha in presence of 1 mM ATP
[2] = molecular target: Mitogen-activated protein kinase 3 (Homo sapiens) (UniProt P27361); test: Inhibition of ERK1 assessed as residual activity at 0.01 uM
[3] = molecular target: Serine/threonine-protein kinase pim-1 (Homo sapiens) (UniProt P11309); test: Inhibition of PIM1 assessed as residual activity at 1 uM
[4] = molecular target: T1, Casein kinase II (Homo sapiens) (UniProt P67870+P68400+P19784); test: Inhibition of CK2 assessed as residual activity at 1 uM; assay type: protein-complex assay
[5] = molecular target: Glycogen synthase kinase-3 beta (Homo sapiens) (UniProt P49841); test: Inhibition of GSK3-beta assessed as residual activity at 1 uM
[6] = molecular target: Aurora kinase B (Homo sapiens) (UniProt Q96GD4); test: Inhibition of AURORA B assessed as residual activity at 1 uM
Homo sapiens [7] = organism: Homo sapiens; test: Inhibition of CDK2/cyclin A assessed as residual activity at 1 uM
[8] = molecular target: MAP kinase-activated protein kinase 3 (Homo sapiens) (UniProt Q16644); test: Inhibition of MAPKAP K3 assessed as residual activity at 1 uM
[9] = molecular target: Proto-oncogene tyrosine-protein kinase Src (Homo sapiens) (UniProt P12931); test: Inhibition of Src assessed as residual activity at 0.01 uM
[10] = molecular target: Serine/threonine-protein kinase N2 (Homo sapiens) (UniProt Q16513); test: Inhibition of PRK2 assessed as residual activity at 1 uM
[11] = molecular target: Mitogen-activated protein kinase 3 (Homo sapiens) (UniProt P27361); test: Inhibition of ERK1 assessed as residual activity at 1 uM
[12] = molecular target: 3-phosphoinositide-dependent protein kinase 1 (Homo sapiens) (UniProt O15530); test: Inhibition of PDK1 assessed as residual activity at 1 uM
[13] = molecular target: Serine/threonine-protein kinase Chk1 (Homo sapiens) (UniProt O14757); test: Inhibition of CHK1 assessed as residual activity at 0.01 uM
[14] = molecular target: MAP kinase-activated protein kinase 5 (Homo sapiens) (UniProt Q8IW41); test: Inhibition of PRAK assessed as residual activity at 0.01 uM
[15] = molecular target: Tyrosine-protein kinase CSK (Homo sapiens) (UniProt P41240); test: Inhibition of CSK assessed as residual activity at 0.01 uM
[16] = molecular target: Protein kinase C alpha type (Homo sapiens) (UniProt P17252); test: Inhibition of PKCalpha assessed as residual activity at 1 uM
[17] = molecular target: Ribosomal protein S6 kinase alpha-3 (Homo sapiens) (UniProt P51812); test: Inhibition of RSK2 assessed as residual activity at 0.01 uM
[18] = molecular target: Ribosomal protein S6 kinase alpha-1 (Homo sapiens) (UniProt Q15418); test: Inhibition of RSK1 assessed as residual activity at 0.01 uM
[19] = molecular target: RAC-beta serine/threonine-protein kinase (Homo sapiens) (UniProt P31751); test: Inhibition of PKBbeta assessed as residual activity at 0.01 uM
[20] = molecular target: Aurora kinase B (Homo sapiens) (UniProt Q96GD4); test: Inhibition of AURORA B assessed as residual activity at 0.01 uM
[21] = molecular target: Dual specificity tyrosine-phosphorylation-regulated kinase 3 (Homo sapiens) (UniProt O43781); test: Inhibition of DYRK3 assessed as residual activity at 0.01 uM
[22] = molecular target: MAP kinase-activated protein kinase 5 (Homo sapiens) (UniProt Q8IW41); test: Inhibition of PRAK assessed as residual activity at 1 uM
[23] = molecular target: RAC-alpha serine/threonine-protein kinase (Homo sapiens) (UniProt P31749); test: Inhibition of PKBalpha assessed as residual activity at 0.01 uM
[24] = molecular target: Serine/threonine-protein kinase D1 (Homo sapiens) (UniProt Q15139); test: Inhibition of PKD1 assessed as residual activity at 0.01 uM
[25] = molecular target: Serine/threonine-protein kinase D1 (Homo sapiens) (UniProt Q15139); test: Inhibition of PKD1 assessed as residual activity at 1 uM
[26] = molecular target: Serine/threonine-protein kinase Chk1 (Homo sapiens) (UniProt O14757); test: Inhibition of CHK1 assessed as residual activity at 1 uM
[27] = molecular target: Serine/threonine-protein kinase pim-1 (Homo sapiens) (UniProt P11309); test: Inhibition of PIM1 assessed as residual activity at 0.01 uM
[28] = molecular target: Dual specificity tyrosine-phosphorylation-regulated kinase 3 (Homo sapiens) (UniProt O43781); test: Inhibition of DYRK3 assessed as residual activity at 1 uM
[29] = molecular target: RAC-alpha serine/threonine-protein kinase (Homo sapiens) (UniProt P31749); test: Inhibition of PKBalpha assessed as residual activity at 1 uM
[30] = molecular target: Mitogen-activated protein kinase 10 (Homo sapiens) (UniProt P53779); test: Inhibition of JNK3 assessed as residual activity at 0.01 uM
[31] = molecular target: Serine/threonine-protein kinase Sgk1 (Homo sapiens) (UniProt O00141); test: Inhibition of SGK1 assessed as residual activity at 0.01 uM
[32] = molecular target: Ribosomal protein S6 kinase beta-1 (Homo sapiens) (UniProt P23443); test: Inhibition of S6K1 assessed as residual activity at 1 uM
[33] = molecular target: Serine/threonine-protein kinase Nek6 (Homo sapiens) (UniProt Q9HC98); test: Inhibition of NEK6 assessed as residual activity at 1 uM; assay type: functional
Homo sapiens [34] = organism: Homo sapiens; test: Inhibition of PKA assessed as residual activity at 1 uM
[35] = molecular target: Calcium/calmodulin-dependent protein kinase type 1 (Homo sapiens) (UniProt Q14012); test: Inhibition of CAMK1 assessed as residual activity at 0.01 uM
[36] = molecular target: Mitogen-activated protein kinase 10 (Homo sapiens) (UniProt P53779); test: Inhibition of JNK3 assessed as residual activity at 1 uM
[37] = molecular target: Serine/threonine-protein kinase Nek6 (Homo sapiens) (UniProt Q9HC98); test: Inhibition of NEK6 assessed as residual activity at 0.01 uM
[38] = molecular target: Serine/threonine-protein kinase PAK 5 (Homo sapiens) (UniProt Q9P286); test: Inhibition of PAK5 assessed as residual activity at 0.01 uM
[39] = molecular target: Tyrosine-protein kinase CSK (Homo sapiens) (UniProt P41240); test: Inhibition of CSK assessed as residual activity at 1 uM
[40] = molecular target: Serine/threonine-protein kinase Sgk1 (Homo sapiens) (UniProt O00141); test: Inhibition of SGK1 assessed as residual activity at 1 uM
[41] = molecular target: T1, Casein kinase II (Homo sapiens); test: Inhibition of CK2 assessed as residual activity at 0.1 uM; assay type: protein-complex assay
[42] = molecular target: T2, AMP-activated protein kinase, AMPK (Homo sapiens) (UniProt P54646+O43741+P54619+Q9UGJ0+Q9Y478+Q13131+Q9UGI9); test: Inhibition of AMPK assessed as residual activity at 0.01 uM; assay type: protein-complex assay
[43] = molecular target: Serine/threonine-protein kinase N2 (Homo sapiens) (UniProt Q16513); test: Inhibition of PRK2 assessed as residual activity at 0.01 uM
[44] = molecular target: Ribosomal protein S6 kinase alpha-1 (Homo sapiens) (UniProt Q15418); test: Inhibition of RSK1 assessed as residual activity at 1 uM
[45] = molecular target: Serine/threonine-protein kinase pim-2 (Homo sapiens) (UniProt Q9P1W9); test: Inhibition of PIM2 assessed as residual activity at 0.01 uM
[46] = molecular target: Tyrosine-protein kinase Lck (Homo sapiens) (UniProt P06239); test: Inhibition of Lck assessed as residual activity at 0.01 uM
[47] = molecular target: Calcium/calmodulin-dependent protein kinase type 1 (Homo sapiens) (UniProt Q14012); test: Inhibition of CAMK1 assessed as residual activity at 1 uM
[48] = molecular target: Ribosomal protein S6 kinase alpha-3 (Homo sapiens) (UniProt P51812); test: Inhibition of RSK2 assessed as residual activity at 1 uM
[49] = molecular target: Tyrosine-protein kinase Lck (Homo sapiens) (UniProt P06239); test: Inhibition of Lck assessed as residual activity at 1 uM
[50] = molecular target: Ribosomal protein S6 kinase beta-1 (Homo sapiens) (UniProt P23443); test: Inhibition of S6K1 assessed as residual activity at 0.01 uM
[51] = molecular target: Protein kinase C zeta type (Homo sapiens) (UniProt Q05513); test: Inhibition of PKCzeta assessed as residual activity at 0.01 uM
[52] = molecular target: Serine/threonine-protein kinase PAK 5 (Homo sapiens) (UniProt Q9P286); test: Inhibition of PAK5 assessed as residual activity at 1 uM
Homo sapiens [53] = organism: Homo sapiens; test: Inhibition of PKA assessed as residual activity at 0.01 uM
[54] = molecular target: Proto-oncogene tyrosine-protein kinase Src (Homo sapiens) (UniProt P12931); test: Inhibition of Src assessed as residual activity at 1 uM
[55] = molecular target: T2, AMP-activated protein kinase, AMPK (Homo sapiens); test: Inhibition of AMPK assessed as residual activity at 1 uM; assay type: protein-complex assay
[56] = molecular target: Protein kinase C alpha type (Homo sapiens) (UniProt P17252); test: Inhibition of PKCalpha assessed as residual activity at 0.01 uM
[57] = molecular target: Maternal embryonic leucine zipper kinase (Homo sapiens) (UniProt Q14680); test: Inhibition of MELK assessed as residual activity at 0.01 uM
Homo sapiens [58] = organism: Homo sapiens; test: Inhibition of CDK2/cyclin A assessed as residual activity at 0.01 uM
[59] = molecular target: 3-phosphoinositide-dependent protein kinase 1 (Homo sapiens) (UniProt O15530); test: Inhibition of PDK1 assessed as residual activity at 0.01 uM
[60] = molecular target: MAP kinase-activated protein kinase 3 (Homo sapiens) (UniProt Q16644); test: Inhibition of MAPKAP K3 assessed as residual activity at 0.01 uM
[61] = molecular target: Maternal embryonic leucine zipper kinase (Homo sapiens) (UniProt Q14680); test: Inhibition of MELK assessed as residual activity at 1 uM
[62] = molecular target: RAC-beta serine/threonine-protein kinase (Homo sapiens) (UniProt P31751); test: Inhibition of PKBbeta assessed as residual activity at 1 uM
[63] = molecular target: Serine/threonine-protein kinase pim-2 (Homo sapiens) (UniProt Q9P1W9); test: Inhibition of PIM2 assessed as residual activity at 1 uM
[64] = molecular target: Protein kinase C zeta type (Homo sapiens) (UniProt Q05513); test: Inhibition of PKCzeta assessed as residual activity at 1 uM
[65] = molecular target: Glycogen synthase kinase-3 beta (Homo sapiens) (UniProt P49841); test: Inhibition of GSK3-beta assessed as residual activity at 0.01 uM

Sequence of RAC-beta serine/threonine-protein kinase (Homo sapiens) (P31751 whole entry): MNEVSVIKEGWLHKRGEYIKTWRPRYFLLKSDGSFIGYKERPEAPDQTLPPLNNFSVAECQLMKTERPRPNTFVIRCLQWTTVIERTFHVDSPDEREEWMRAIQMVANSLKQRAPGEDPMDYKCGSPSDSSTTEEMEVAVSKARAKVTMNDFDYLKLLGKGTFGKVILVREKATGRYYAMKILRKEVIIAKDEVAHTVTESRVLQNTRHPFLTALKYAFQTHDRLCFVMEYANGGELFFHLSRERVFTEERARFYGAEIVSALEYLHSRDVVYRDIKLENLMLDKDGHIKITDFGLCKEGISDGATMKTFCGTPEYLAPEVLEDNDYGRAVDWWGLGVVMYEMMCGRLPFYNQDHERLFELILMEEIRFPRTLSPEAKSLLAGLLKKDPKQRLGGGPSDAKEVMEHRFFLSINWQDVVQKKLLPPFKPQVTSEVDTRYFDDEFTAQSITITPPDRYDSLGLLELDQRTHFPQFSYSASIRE
Sequence of Serine/threonine-protein kinase Chk1 (Homo sapiens) (O14757 whole entry): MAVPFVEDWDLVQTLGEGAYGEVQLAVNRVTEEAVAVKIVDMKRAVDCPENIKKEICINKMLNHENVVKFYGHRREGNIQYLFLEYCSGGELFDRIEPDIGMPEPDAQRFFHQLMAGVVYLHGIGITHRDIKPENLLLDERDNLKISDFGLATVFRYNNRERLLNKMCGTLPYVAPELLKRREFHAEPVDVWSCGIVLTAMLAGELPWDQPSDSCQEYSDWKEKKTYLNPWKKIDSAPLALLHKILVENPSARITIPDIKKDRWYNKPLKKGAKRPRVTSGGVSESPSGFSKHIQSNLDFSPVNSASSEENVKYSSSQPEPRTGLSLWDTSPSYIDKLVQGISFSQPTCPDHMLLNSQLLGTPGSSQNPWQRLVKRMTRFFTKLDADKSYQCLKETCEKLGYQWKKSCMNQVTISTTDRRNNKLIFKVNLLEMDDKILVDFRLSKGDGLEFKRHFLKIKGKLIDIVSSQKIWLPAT
Sequence of Mitogen-activated protein kinase 10 (Homo sapiens) (P53779 whole entry): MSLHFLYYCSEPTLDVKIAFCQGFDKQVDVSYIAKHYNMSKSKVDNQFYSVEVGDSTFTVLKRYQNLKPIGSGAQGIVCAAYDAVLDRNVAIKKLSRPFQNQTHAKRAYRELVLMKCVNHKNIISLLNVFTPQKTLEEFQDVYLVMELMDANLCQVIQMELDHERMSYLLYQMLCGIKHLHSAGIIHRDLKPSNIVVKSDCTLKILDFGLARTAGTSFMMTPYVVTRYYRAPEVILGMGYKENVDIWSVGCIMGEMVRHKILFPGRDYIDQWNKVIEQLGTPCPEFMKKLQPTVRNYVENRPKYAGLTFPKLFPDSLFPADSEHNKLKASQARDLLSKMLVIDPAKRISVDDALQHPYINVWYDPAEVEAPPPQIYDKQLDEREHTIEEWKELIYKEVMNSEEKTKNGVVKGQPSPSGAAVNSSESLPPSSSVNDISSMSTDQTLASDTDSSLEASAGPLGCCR
Sequence of Glycogen synthase kinase-3 beta (Homo sapiens) (P49841 whole entry, looked up): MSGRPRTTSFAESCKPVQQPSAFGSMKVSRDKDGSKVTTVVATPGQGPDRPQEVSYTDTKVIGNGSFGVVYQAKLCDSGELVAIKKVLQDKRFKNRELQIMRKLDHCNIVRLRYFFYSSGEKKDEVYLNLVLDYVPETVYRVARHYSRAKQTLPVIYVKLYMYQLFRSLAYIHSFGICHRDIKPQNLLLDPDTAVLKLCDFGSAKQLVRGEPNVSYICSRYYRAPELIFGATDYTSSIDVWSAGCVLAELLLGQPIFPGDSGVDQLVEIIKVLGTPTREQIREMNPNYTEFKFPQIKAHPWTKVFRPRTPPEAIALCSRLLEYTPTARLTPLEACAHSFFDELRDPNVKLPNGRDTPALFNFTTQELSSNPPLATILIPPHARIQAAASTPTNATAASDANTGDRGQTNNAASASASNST
Sequence of 3-phosphoinositide-dependent protein kinase 1 (Homo sapiens) (O15530 whole entry): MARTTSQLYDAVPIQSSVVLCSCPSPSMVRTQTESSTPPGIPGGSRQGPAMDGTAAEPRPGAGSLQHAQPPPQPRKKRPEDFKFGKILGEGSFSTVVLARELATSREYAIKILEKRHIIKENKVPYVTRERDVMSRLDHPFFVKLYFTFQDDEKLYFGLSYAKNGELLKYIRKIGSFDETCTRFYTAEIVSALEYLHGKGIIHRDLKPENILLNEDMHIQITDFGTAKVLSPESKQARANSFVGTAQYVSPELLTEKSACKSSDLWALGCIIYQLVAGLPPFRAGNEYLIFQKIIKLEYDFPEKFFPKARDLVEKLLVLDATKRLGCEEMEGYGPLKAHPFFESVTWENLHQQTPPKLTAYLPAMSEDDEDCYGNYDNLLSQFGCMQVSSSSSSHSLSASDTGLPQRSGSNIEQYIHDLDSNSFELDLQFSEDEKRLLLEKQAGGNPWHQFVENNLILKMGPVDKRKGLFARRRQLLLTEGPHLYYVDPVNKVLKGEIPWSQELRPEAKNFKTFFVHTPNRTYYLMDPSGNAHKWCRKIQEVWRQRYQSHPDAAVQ
Sequence of Ribosomal protein S6 kinase beta-1 (Homo sapiens) (P23443 whole entry, looked up): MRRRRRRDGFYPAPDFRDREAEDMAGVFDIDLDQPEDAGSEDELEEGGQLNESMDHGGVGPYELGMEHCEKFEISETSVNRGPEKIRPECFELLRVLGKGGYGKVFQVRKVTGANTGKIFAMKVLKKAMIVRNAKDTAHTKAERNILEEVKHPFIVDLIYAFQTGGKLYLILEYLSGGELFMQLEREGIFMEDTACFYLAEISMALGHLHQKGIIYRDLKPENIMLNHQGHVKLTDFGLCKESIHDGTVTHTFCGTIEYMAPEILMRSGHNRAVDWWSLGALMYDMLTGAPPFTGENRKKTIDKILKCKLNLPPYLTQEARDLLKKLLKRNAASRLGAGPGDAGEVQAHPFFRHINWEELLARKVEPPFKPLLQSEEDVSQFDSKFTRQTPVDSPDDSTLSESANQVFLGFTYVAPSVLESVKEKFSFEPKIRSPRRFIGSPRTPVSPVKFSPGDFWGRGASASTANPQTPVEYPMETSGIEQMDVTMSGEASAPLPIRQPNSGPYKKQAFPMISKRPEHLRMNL
Sequence of Serine/threonine-protein kinase pim-2 (Homo sapiens) (Q9P1W9 whole entry, looked up): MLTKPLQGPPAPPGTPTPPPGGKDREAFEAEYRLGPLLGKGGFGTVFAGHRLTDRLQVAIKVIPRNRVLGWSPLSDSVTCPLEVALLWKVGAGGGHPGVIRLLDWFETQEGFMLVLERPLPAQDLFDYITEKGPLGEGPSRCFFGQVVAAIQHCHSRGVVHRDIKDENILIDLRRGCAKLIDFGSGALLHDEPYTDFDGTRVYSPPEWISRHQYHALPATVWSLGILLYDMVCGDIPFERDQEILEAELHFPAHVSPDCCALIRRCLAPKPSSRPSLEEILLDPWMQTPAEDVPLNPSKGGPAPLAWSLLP
Sequence of Dual specificity tyrosine-phosphorylation-regulated kinase 3 (Homo sapiens) (O43781 whole entry): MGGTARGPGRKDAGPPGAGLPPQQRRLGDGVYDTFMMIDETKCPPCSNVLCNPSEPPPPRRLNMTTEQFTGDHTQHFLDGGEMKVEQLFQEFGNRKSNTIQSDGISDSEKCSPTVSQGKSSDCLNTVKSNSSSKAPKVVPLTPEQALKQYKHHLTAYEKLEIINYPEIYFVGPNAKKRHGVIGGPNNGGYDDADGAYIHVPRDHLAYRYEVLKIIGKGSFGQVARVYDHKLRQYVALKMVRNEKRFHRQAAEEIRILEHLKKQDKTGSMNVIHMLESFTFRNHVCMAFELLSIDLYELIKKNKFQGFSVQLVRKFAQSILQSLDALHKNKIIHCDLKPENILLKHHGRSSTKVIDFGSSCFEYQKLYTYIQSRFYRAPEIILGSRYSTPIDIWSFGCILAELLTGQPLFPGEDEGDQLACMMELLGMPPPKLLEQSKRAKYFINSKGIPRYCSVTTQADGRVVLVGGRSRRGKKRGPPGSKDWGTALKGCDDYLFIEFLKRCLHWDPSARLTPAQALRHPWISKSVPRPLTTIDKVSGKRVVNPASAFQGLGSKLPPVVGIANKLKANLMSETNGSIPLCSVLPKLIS
Sequence of Ribosomal protein S6 kinase alpha-3 (Homo sapiens) (P51812 whole entry): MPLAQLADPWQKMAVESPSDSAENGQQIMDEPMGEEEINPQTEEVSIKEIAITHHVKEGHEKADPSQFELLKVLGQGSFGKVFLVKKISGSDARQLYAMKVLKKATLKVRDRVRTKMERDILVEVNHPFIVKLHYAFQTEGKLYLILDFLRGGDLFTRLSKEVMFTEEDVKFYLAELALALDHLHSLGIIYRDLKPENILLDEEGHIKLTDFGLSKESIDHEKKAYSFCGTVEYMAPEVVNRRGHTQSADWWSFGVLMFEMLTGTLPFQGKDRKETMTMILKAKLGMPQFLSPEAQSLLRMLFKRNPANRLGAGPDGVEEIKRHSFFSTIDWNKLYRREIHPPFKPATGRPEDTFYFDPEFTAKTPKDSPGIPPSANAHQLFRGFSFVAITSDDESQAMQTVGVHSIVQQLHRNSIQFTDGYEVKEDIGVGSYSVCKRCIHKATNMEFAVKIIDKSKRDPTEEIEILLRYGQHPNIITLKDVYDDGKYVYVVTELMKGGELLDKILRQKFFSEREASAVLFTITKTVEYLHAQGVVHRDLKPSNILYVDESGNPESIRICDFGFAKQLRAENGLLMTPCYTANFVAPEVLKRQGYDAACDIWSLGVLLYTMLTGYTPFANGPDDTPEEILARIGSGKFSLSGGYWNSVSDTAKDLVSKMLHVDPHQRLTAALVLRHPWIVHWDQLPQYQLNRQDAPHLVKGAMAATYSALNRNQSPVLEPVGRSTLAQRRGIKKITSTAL
Sequence of Mitogen-activated protein kinase 3 (Homo sapiens) (P27361 whole entry): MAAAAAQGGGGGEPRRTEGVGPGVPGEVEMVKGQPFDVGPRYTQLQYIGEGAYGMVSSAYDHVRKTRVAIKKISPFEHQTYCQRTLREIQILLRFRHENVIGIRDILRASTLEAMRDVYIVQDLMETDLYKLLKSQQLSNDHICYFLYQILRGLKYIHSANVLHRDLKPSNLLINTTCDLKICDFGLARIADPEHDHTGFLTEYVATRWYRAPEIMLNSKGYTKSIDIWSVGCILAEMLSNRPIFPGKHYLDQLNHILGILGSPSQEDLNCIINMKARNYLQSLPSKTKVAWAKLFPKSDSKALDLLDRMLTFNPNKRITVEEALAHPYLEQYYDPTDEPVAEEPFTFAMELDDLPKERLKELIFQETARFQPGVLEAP

- pIC50 [1]: < 3.00
SMILES: COC(=O)[C@H]1C[C@H](O)[C@@H](n2cnc3c(N)ncnc32)C1

- pIC50 [1]: 3.77
SMILES: COC(=O)[C@@H]1C[C@@H](O)[C@H](n2cnc3c(N)ncnc32)C1

- Activity [2]: 82%
- Activity [3]: 6%
- Activity [4]: 88%
- Activity [5]: 88%
- Activity [6]: 72%
- Activity (Homo sapiens [7]): 114%
- Activity [8]: 91%
- Activity [9]: 85%
- Activity [10]: 3%
- Activity [11]: 84%
- Activity [12]: 28%
- Activity [13]: 84%
- Activity [14]: 88%
- Activity [15]: 97%
- Activity [16]: 30%
- Activity [17]: 91%
- Activity [18]: 98%
- Activity [19]: 74%
- Activity [20]: 76%
- Activity [21]: 81%
- Activity [22]: 96%
- Activity [23]: 25%
- Activity [24]: 81%
- Activity [25]: 73%
- Activity [26]: 27%
- Activity [27]: 92%
- Activity [28]: 51%
- Activity [29]: 32%
- Activity [30]: 103%
- Activity [31]: 40%
- Activity [32]: 7%
- Activity [33]: 111%
- Activity (Homo sapiens [34]): 0%
- Activity [35]: 62%
- Activity [36]: 104%
- Activity [37]: 101%
- Activity [38]: 71%
- Activity [39]: 77%
- Activity [40]: 19%
- Activity [41]: 86%
- Activity [42]: 70%
- Activity [43]: 59%
- Activity [44]: 98%
- Activity [45]: 103%
- Activity [46]: 86%
- Activity [47]: 19%
- Activity [48]: 28%
- Activity [49]: 63%
- Activity [50]: 81%
- Activity [51]: 83%
- Activity [52]: 10%
- Activity (Homo sapiens [53]): 7%
- Activity [54]: 84%
- Activity [55]: 12%
- Activity [56]: 96%
- Activity [57]: 86%
- Activity (Homo sapiens [58]): 103%
- Activity [59]: 76%
- Activity [60]: 97%
- Activity [61]: 10%
- Activity [62]: 2%
- Activity [63]: 20%
- Activity [64]: 33%
- Activity [65]: 82%
SMILES: N=C(N)NCCC[C@H](NC(=O)[C@H](CCCNC(=N)N)NC(=O)[C@H](CCCNC(=N)N)NC(=O)[C@H](CCCNC(=N)N)NC(=O)[C@H](CCCNC(=N)N)NC(=O)[C@H](CCCNC(=N)N)NC(=O)CCCCCNC(=O)[C@@H]1C[C@@H](O)[C@H](n2cnc3c(N)ncnc32)C1)C(N)=O
